Experimental data reported in EP4725957A1, “GROUP OF CYCLIC ALKALINE LIPOPEPTIDE COMPOUNDS, AND PREPARATION METHOD THEREFOR AND USE THEREOF” (Institute of Medicinal Biotechnology, Chinese Academy of …, priority 2023, dated 2024).
Converted amounts (≈) assume the structure as drawn. Bridge positions count the residues as written; N and C are the ends. Square brackets hold non-standard residues; d marks the D form. Peptide text beside a SMILES is read from it. * marks the point of attachment. dOrn = NCCC[C@@H](N)C(=O)O; Nonanoyl = CCCCCCCCC(=O)*; X1 = CC[C@H](C)CCCCC(=O)*; dDab = NCC[C@@H](N)C(=O)O; Heptanoyl = CCCCCCC(=O)*; Orn = NCCC[C@H](N)C(=O)O; Dab = NCC[C@H](N)C(=O)O; Dap = NC[C@H](N)C(=O)O

Legend:
Assay type in all cases: cell-based
[1] = test system: Klebsiella pneumoniae ATCC BAA-1705 (KPC); conditions: ATCC BAA-1705
Protocol: (§1) The minimal inhibitory concentration (MIC) was determined by the broth microdilution method according to the recommended procedures of the Clinical and Laboratory Standards Institute (CLSI).
(§2) An appropriate amount of the cyclic lipopeptide compounds prepared in Examples 1-120 and the reference standards were weighed and dissolved in sterile pure water. An appropriate volume of the mother solution was subjected to ten-fold dilution with sterile Mueller-Hinton (MH) broth to a concentration of 0.256 mg/mL. Half of the drug solution was aliquoted into 96-well reagent reservoirs, while the other half was subjected to two-fold serial dilution with sterile MH broth before being transferred into deep-well reagent reservoirs. The above steps were repeated, so that the drug concentrations in the reagent reservoirs were adjusted to 128, 64, 32, 16, 8, 4, 2, 1, 0.5, 0.25, 0.125 and 0.06 mg/L in sequence, and all solutions were prepared and used immediately. Several colonies were picked from agar plates cultured for 18-24 h and directly suspended in sterile normal saline, and the concentration of the bacterial suspension was adjusted to 0.5 McFarland units. The calibrated bacterial suspension was diluted with MH broth to a concentration of (4-8) × 10^5 colony-forming units per milliliter (CFU/mL) and prepared and used immediately. A volume of 100 µL of the aforementioned compounds of the present disclosure (e.g., the compounds prepared in the examples) and reference solutions at different concentrations was separately pipetted into wells 1 to 12 of sterile 96-well polystyrene plates, and an additional 100 µL of the aforementioned inoculum was added to each well. The final concentrations of the samples in the wells were adjusted to 64, 32, 16, 8, 4, 2, 1, 0.5, 0.25, 0.125, 0.06 and 0.03 mg/L, respectively, and the final concentration of the inoculum in each well was (2-4) × 10^5 CFU/mL. Additional growth control wells were set up, each containing 100 µL of the inoculum and 100 µL of sterile MH broth. The test substances and inocula in all wells were mixed thoroughly and then sealed. The inoculated 96-well plates were incubated in an incubator at 35-37°C for 16-20 h.
(§3) The strains used for the antibacterial activity assay were obtained from the American Type Culture Collection (ATCC) and clinical isolates.
(§4) The strains employed for the antibacterial activity assay included Escherichia coli ATCC BAA-2523, ATCC BAA-2340 (KPC), Klebsiella pneumoniae KPN+19-15, ATCC BAA-1705 (KPC), Pseudomonas aeruginosa PAE19-3, ATCC 27853, Acinetobacter baumannii ABA19-1, and NCTC 13304 (OXA-27).

[2] = test system: Escherichia coli ATCC BAA-2340 (KPC); conditions: ATCC BAA-2340
Protocol: as §1, §2, §3, §4

[3] = test system: Klebsiella pneumoniae KPN+19-15; conditions: KPN+19-15
Protocol: as §1, §2, §3, §4

[4] = test system: Acinetobacter baumannii NCTC 13304 (OXA-27); conditions: NCTC 13304
Protocol: as §1, §2, §3, §4

[5] = test system: Acinetobacter baumannii ABA19-1; conditions: ABA19-1
Protocol: as §1, §2, §3, §4

[6] = test system: Pseudomonas aeruginosa ATCC 27853; conditions: ATCC 27853
Protocol: as §1, §2, §3, §4

[7] = test system: Pseudomonas aeruginosa PAE19-3; conditions: PAE19-3
Protocol: as §1, §2, §3, §4

[8] = test system: Escherichia coli ATCC BAA-2523; conditions: ATCC BAA-2523
Protocol: as §1, §2, §3, §4

[9] = Nephrotoxicity assay: in vitro cytotoxicity of HK-2 cells by CCK-8 assay; conditions: human, HK-2 cells (human renal), 72 h incubation with drug-containing medium
Protocol: In vitro cytotoxicity detection of HK-2 cells was performed by the CCK-8 assay.
The culture medium for human renal HK-2 cells was a complete RPMI-1640 medium (Invitrogen) supplemented with 10% fetal bovine serum (FBS, Gibco). The cryopreservation solution was composed of 90% FBS and 10% dimethyl sulfoxide (DMSO), and the cells were preserved long-term in liquid nitrogen. Cells were cultured in a sterile incubator with a humidified atmosphere containing 5% CO2 at 37°C. When the cell density reached 70%-80%, cell digestion and subculture were conducted. The cyclic lipopeptide compounds prepared in Examples 1-120 were weighed and dissolved in sterile water to prepare a mother solution with a concentration of 1 mg/mL. Drug-containing culture media were then formulated, with the final concentrations set as 500, 250, 200, 100, 50, 25, and 12.5 µg/mL, respectively. Cells were adjusted to a density of 5 × 10^4 cells/mL and seeded into 96-well plates, with 100 µL of cell suspension added to each well. After stable incubation for 24 h, the original medium was replaced with the prepared drug-containing medium, and the plates were incubated in the incubator for an additional 72 h. The medium was gently aspirated, and 100 µL of blank medium containing 10% CCK-8 was added to each well. After incubation in the incubator for 3 h, the optical density (OD) values at 450 nm were measured using a BIOTEK microplate reader. The experiment was repeated three times. For each replicate, polymyxin B was set as the positive drug, and a drug-free blank group was established as the control. The cell viability (%) was calculated by the formula: Cell viability (%) = [(OD of drug-treated group - OD of zero-setting) / (OD of drug-free group - OD of zero-setting)] × 100%. The half-maximal inhibitory concentration (IC50) values were calculated through logarithmic regression analysis.
The cells used for the nephrotoxicity assay were obtained from the ATCC ( American Type Culture Collection). The Cell Counting Kit-8 (CCK-8) used in the assay was supplied by Beyotime Biotechnology Co., Ltd.

Which MIC [1] does the source give for `CCCCCCC(=O)N[C@@H](CN)C(=O)N[C@H](C(=O)N[C@H](CCN)C(=O)N[C@H]1CCNC(=O)[C@H]([C@@H](C)O)NC(=O)[C@H](CCN)NC(=O)[C@H](CCN)NC(=O)[C@H](CC(C)C)NC(=O)[C@@H](CC(C)C)NC(=O)[C@H](CCN)NC1=O)[C@@H](C)O` [Compound 99, Heptanoyl-Dap-Thr-D-Dab-ring(4-10)[Dab-Dab-D-Leu-Leu-Dab-Dab-Thr]] (Heptanoyl-[Dap]T[dDab][Dab][Dab][dL]L[Dab][Dab]T; lactam 4-C) here?
Its MIC is 0.03 µg/mL (≈ 0.0266 µM).

And the MIC [2]?
Its MIC is 0.06 µg/mL (≈ 0.0532 µM).

What about the MIC [3] of the same compound?
Its MIC is 0.03 µg/mL (≈ 0.0266 µM).

What about the MIC [4] of the same compound?
The MIC was 0.03 µg/mL (≈ 0.0266 µM).

What about the MIC [5] of the same compound?
Its MIC is 0.03 µg/mL (≈ 0.0266 µM).

What about the MIC [6] of the same compound?
Its MIC is 1 µg/mL (≈ 0.887 µM).

And the MIC [7]?
Its MIC is 1 µg/mL (≈ 0.887 µM).

What about the MIC [8] of the same compound?
Its MIC is 0.06 µg/mL (≈ 0.0532 µM).

What about the IC50 at 72 h [9] of the same compound?
The IC50 at 72 h was 317 ± 18.1 µg/mL (≈ 281 µM).

Which MIC [1] does the source give for `CCCCCCC(=O)N[C@@H](CCCN)C(=O)N[C@H](C(=O)N[C@H](CO)C(=O)N[C@H]1CCNC(=O)[C@H]([C@@H](C)O)NC(=O)[C@H](CCN)NC(=O)[C@H](CCN)NC(=O)[C@H]([C@@H](C)O)NC(=O)[C@@H](Cc2ccccc2)NC(=O)[C@H](CCN)NC1=O)[C@@H](C)O` [Compound 59, Heptanoyl-Orn-Thr-D-Ser-ring(4-10)[Dab-Dab-D-Phe-Thr-Dab-Dab-Thr]] (Heptanoyl-[Orn]T[dS][Dab][Dab][dF]T[Dab][Dab]T; lactam 4-C) here?
Its MIC is 0.25 µg/mL (≈ 0.215 µM).

What about the MIC [2] of the same compound?
Its MIC is 0.25 µg/mL (≈ 0.215 µM).

And the MIC [3]?
The MIC was 0.5 µg/mL (≈ 0.429 µM).

What about the MIC [4] of the same compound?
The MIC was 0.25 µg/mL (≈ 0.215 µM).

What about the MIC [5] of the same compound?
Its MIC is 0.25 µg/mL (≈ 0.215 µM).

And the MIC [6]?
Its MIC is 64 µg/mL (≈ 55 µM).

What about the MIC [7] of the same compound?
The MIC was 8 µg/mL (≈ 6.87 µM).

What about the MIC [8] of the same compound?
Its MIC is 0.25 µg/mL (≈ 0.215 µM).

What about the IC50 at 72 h [9] of the same compound?
Its IC50 at 72 h is > 500 µg/mL.

For `CC[C@H](C)CCCCC(=O)N[C@@H](CCN)C(=O)N[C@H](C(=O)N[C@H](CCCN)C(=O)N[C@H]1CCNC(=O)[C@H]([C@@H](C)O)NC(=O)[C@H](CCN)NC(=O)[C@H](CCN)NC(=O)[C@H]([C@@H](C)O)NC(=O)[C@@H](Cc2ccccc2)NC(=O)[C@H](CCN)NC1=O)[C@@H](C)O` [Compound 21, (S)-6-methyloctanoyl-Dab-Thr-D-Orn-ring(4-10)[Dab-Dab-D-Phe-Thr-Dab-Dab-Thr]] (X1-[Dab]T[dOrn][Dab][Dab][dF]T[Dab][Dab]T; lactam 4-C), which MIC [1] is on record?
The MIC was 0.06 µg/mL (≈ 0.0498 µM).

And the MIC [2]?
Its MIC is ≤0.03 µg/mL.

What about the MIC [3] of the same compound?
The MIC was 0.125 µg/mL (≈ 0.104 µM).

What about the MIC [4] of the same compound?
The MIC was 0.06 µg/mL (≈ 0.0498 µM).

And the MIC [5]?
Its MIC is 0.125 µg/mL (≈ 0.104 µM).

What about the MIC [6] of the same compound?
The MIC was 0.25 µg/mL (≈ 0.207 µM).

What about the MIC [7] of the same compound?
The MIC was 1 µg/mL (≈ 0.83 µM).

What about the MIC [8] of the same compound?
The MIC was ≤0.03 µg/mL.

And the IC50 at 72 h [9]?
The IC50 at 72 h was > 500 µg/mL.

What does the source list for `CCCCCCCCC(=O)N[C@@H](CCN)C(=O)N[C@H](C(=O)N[C@@H](CCCN)C(=O)N[C@H]1CCNC(=O)[C@H]([C@@H](C)O)NC(=O)[C@H](CCN)NC(=O)[C@H](CCN)NC(=O)[C@H]([C@@H](C)O)NC(=O)[C@@H](Cc2ccccc2)NC(=O)[C@H](CCN)NC1=O)[C@@H](C)O` [Compound 30, Nonanoyl-Dab-Thr-Orn-ring(4-10)[Dab-Dab-D-Phe-Thr-Dab-Dab-Thr]] (Nonanoyl-[Dab]T[Orn][Dab][Dab][dF]T[Dab][Dab]T; lactam 4-C)?
MIC [1]: 0.03 µg/mL (≈ 0.0249 µM); MIC [2]: 0.03 µg/mL (≈ 0.0249 µM); MIC [3]: 0.03 µg/mL (≈ 0.0249 µM); MIC [4]: 0.06 µg/mL (≈ 0.0498 µM); MIC [5]: 0.125 µg/mL (≈ 0.104 µM); MIC [6]: 0.03 µg/mL (≈ 0.0249 µM); MIC [7]: 0.5 µg/mL (≈ 0.415 µM); MIC [8]: 0.03 µg/mL (≈ 0.0249 µM); IC50 at 72 h [9]: 270 ± 13.1 µg/mL (≈ 224 µM)
